Reference: patent US4366160A, “Imidazole derivatives” (Hoffmann-La Roche Inc., priority 1980, dated 1982)

System: Spontaneously hypertensive rat
Test: Cardiovascular activities: systolic blood pressure and heart rate in conscious spontaneously hypertensive rats (p.o.)
Assay type: in vivo
Settings: 1.0 mg/kg (p.o.), maximum variation from control
Experimental: The cardiovascular activities can be determined according to the following method:
The systolic blood pressure and the heart rate are measured several times on conscious, spontaneously hypertensive female rats before the administration of the subtance. Per dosage there are used 5 experimental animals with a body weight of about 300 g. The administration of substance is carried out by means of a stomach probe. Both parameters are measured 1, 3, 6 and 16 hours after the administration and the percentage variation from the control values is calculated. The systolic blood pressure is measured indirectly at the tail artery of the rate according to the method of Gerold et al. (Helv. Physiol. Acta 24, 58-69 (1966); Arzneimittelforschung 18, 1285-1287 (1968).
(§1) In the Table which follows, the results obtained with compounds A to H are compiled. The maximum percentage variations from the control values are given.

Row | Compound | Blood pressure, Δ% | Heart rate, Δ%
1 | [O-][n+]1ccccc1CON1CCNC1=Nc1cccc(Cl)c1Cl [B, 2-([{2-[(2,3-Dichlorophenyl)imino]-1-imidazolidinyl}oxy]methyl)pyridine 1-oxide] | -4.1% | -11.8%
2 | CN(C1=NCCN1OCc1cccc[n+]1[O-])c1c(Cl)cccc1Cl [C, 2-[{[2-(2,6-Dichloro-N-methylanilino)-2-imidazolin-1-yl]oxy}methyl]pyridine 1-oxide] | +0.3% | +6.3%
3 | [O-][n+]1ccccc1CON1CCNC1=Nc1c(Cl)cccc1Cl [Compound A, 2-([{2-[(2,6-Dichlorophenyl)imino]-1-imidazolidinyl}oxy]methyl)pyridine 1-oxide] | -0.2% | +15.2%
4 | Cc1cc[n+]([O-])c(CON2CCNC2=Nc2c(Cl)cccc2Cl)c1 [D, 2-([{2-[(2,6-Dichlorophenyl)imino]-1-imidazolidinyl}oxy]methyl)-4-methylpyridin 1-oxide] | -7.0% | -10.0%

Same assay, conditions: 3.0 mg/kg (p.o.), maximum variation from control

Row | Compound | Blood pressure, Δ% | Heart rate, Δ%
5 | [O-][n+]1ccccc1CON1CCNC1=Nc1cccc(Cl)c1Cl [B, 2-([{2-[(2,3-Dichlorophenyl)imino]-1-imidazolidinyl}oxy]methyl)pyridine 1-oxide] | -7.8% | -8.4%
6 | CN(C1=NCCN1OCc1cccc[n+]1[O-])c1c(Cl)cccc1Cl [C, 2-[{[2-(2,6-Dichloro-N-methylanilino)-2-imidazolin-1-yl]oxy}methyl]pyridine 1-oxide] | +1.2% | -5.8%
7 | [O-][n+]1ccccc1CON1CCNC1=Nc1c(Cl)cccc1Cl [Compound A, 2-([{2-[(2,6-Dichlorophenyl)imino]-1-imidazolidinyl}oxy]methyl)pyridine 1-oxide] | +0.3% | +3.3%
8 | Cc1cc[n+]([O-])c(CON2CCNC2=Nc2c(Cl)cccc2Cl)c1 [D, 2-([{2-[(2,6-Dichlorophenyl)imino]-1-imidazolidinyl}oxy]methyl)-4-methylpyridin 1-oxide] | -10.2% | -7.5%

Same assay, conditions: 10.0 mg/kg (p.o.), maximum variation from control

Row | Compound | Blood pressure, Δ% | Heart rate, Δ%
9 | CN(C1=NCCN1OCc1cccc[n+]1[O-])c1c(Cl)cccc1Cl [C, 2-[{[2-(2,6-Dichloro-N-methylanilino)-2-imidazolin-1-yl]oxy}methyl]pyridine 1-oxide] | +2.2% | +3.2%
10 | [O-][n+]1ccccc1CON1CCNC1=Nc1c(Cl)cccc1Cl [Compound A, 2-([{2-[(2,6-Dichlorophenyl)imino]-1-imidazolidinyl}oxy]methyl)pyridine 1-oxide] | -3.1% | -9.6%
11 | Cc1cc[n+]([O-])c(CON2CCNC2=Nc2c(Cl)cccc2Cl)c1 [D, 2-([{2-[(2,6-Dichlorophenyl)imino]-1-imidazolidinyl}oxy]methyl)-4-methylpyridin 1-oxide] | -12.6% | -13.3%

Same assay, conditions: 30.0 mg/kg (p.o.), maximum variation from control

Row | Compound | Blood pressure, Δ% [%] | Heart rate, Δ% [%]
12 | [O-][n+]1ccccc1CON1CCNC1=Nc1c(Cl)cccc1Cl [Compound A, 2-([{2-[(2,6-Dichlorophenyl)imino]-1-imidazolidinyl}oxy]methyl)pyridine 1-oxide] | -10.5 | -3.6

Same assay, conditions: 100.0 mg/kg (p.o.), maximum variation from control

Row | Compound | Blood pressure, Δ% [%] | Heart rate, Δ% [%]
13 | [O-][n+]1ccccc1CON1CCNC1=Nc1c(Cl)cccc1Cl [Compound A, 2-([{2-[(2,6-Dichlorophenyl)imino]-1-imidazolidinyl}oxy]methyl)pyridine 1-oxide] | 0 | 0

System: α-adrenergic receptor
Test: Cancellation of the analgesia by the α-adrenergic receptor blocker yohimbine
Assay type: in vivo
Settings: not given

Row | Compound | cancellation of analgesia with yohimbine
14 | [O-][n+]1ccccc1CON1CCNC1=Nc1c(Cl)cccc1Cl [Compound A, 2-([{2-[(2,6-Dichlorophenyl)imino]-1-imidazolidinyl}oxy]methyl)pyridine 1-oxide] | can be cancelled out

System: electrical stimulation of the dental pulp
Test: Activity against an electrical stimulation of the dental pulp in apes, peroral
Assay type: in vivo
Settings: after peroral administration

Row | Compound | activity against an electrical stimulation of the dental pulp, relative to morphine
15 | [O-][n+]1ccccc1CON1CCNC1=Nc1c(Cl)cccc1Cl [Compound A, 2-([{2-[(2,6-Dichlorophenyl)imino]-1-imidazolidinyl}oxy]methyl)pyridine 1-oxide] | three-times stronger activity than morphine

System: morphine-antagonistic activity
Test: Morphine-antagonistic activity
Assay type: in vivo
Settings: concluded from lack of morphine-antagonistic activity

Row | Compound | addictive activity
16 | [O-][n+]1ccccc1CON1CCNC1=Nc1c(Cl)cccc1Cl [Compound A, 2-([{2-[(2,6-Dichlorophenyl)imino]-1-imidazolidinyl}oxy]methyl)pyridine 1-oxide] | absence of an addictive activity

Same assay, conditions: in vivo

Row | Compound | morphine-antagonistic activity
17 | [O-][n+]1ccccc1CON1CCNC1=Nc1c(Cl)cccc1Cl [Compound A, 2-([{2-[(2,6-Dichlorophenyl)imino]-1-imidazolidinyl}oxy]methyl)pyridine 1-oxide] | no morphine-antagonistic activity could be found

System: opiate receptor
Test: Cancellation of the analgesia by the opiate receptor blocker naloxone
Assay type: in vivo
Settings: not given

Row | Compound | cancellation of analgesia with naloxone
18 | [O-][n+]1ccccc1CON1CCNC1=Nc1c(Cl)cccc1Cl [Compound A, 2-([{2-[(2,6-Dichlorophenyl)imino]-1-imidazolidinyl}oxy]methyl)pyridine 1-oxide] | not with the opiate receptor blocker naloxone

System: writhing (mouse)
Test: Writhing test (mouse), 60 minutes after peroral administration
Assay type: in vivo
Settings: po, 1 h, orally, 60 minutes after administration, 50% of animals show no more than one writhing
Experimental: In carrying out the experiment there are used in each case 8 male mice (20-22 g) per dosage. 60 minutes after the oral administration of the test substance 10 ml/kg of the test solution is administered to the animals by intraperitoneal injection. After a latent period of 5 minutes, the number of animals in which during 5 minutes no more than one characteristic writhing symptom, that is, convulsive stretching movement of the body, occurs is registered. The ED 50 indicates the oral dosage in mg/kg at which 50% of the animals show no more than one writhing.
60 minutes after peroral administration

Row | Compound | ED50 [mg/kg]
19 | [O-][n+]1ccccc1CON1CCNC1=Nc1cccc(Cl)c1Cl [B, 2-([{2-[(2,3-Dichlorophenyl)imino]-1-imidazolidinyl}oxy]methyl)pyridine 1-oxide] | 1.3
20 | CN(C1=NCCN1OCc1cccc[n+]1[O-])c1c(Cl)cccc1Cl [C, 2-[{[2-(2,6-Dichloro-N-methylanilino)-2-imidazolin-1-yl]oxy}methyl]pyridine 1-oxide] | 26
21 | [O-][n+]1ccccc1CON1CCNC1=Nc1c(Cl)cccc1Cl [Compound A, 2-([{2-[(2,6-Dichlorophenyl)imino]-1-imidazolidinyl}oxy]methyl)pyridine 1-oxide] | 3.5
22 | Cc1cc[n+]([O-])c(CON2CCNC2=Nc2c(Cl)cccc2Cl)c1 [D, 2-([{2-[(2,6-Dichlorophenyl)imino]-1-imidazolidinyl}oxy]methyl)-4-methylpyridin 1-oxide] | 16

System: sympathetic nervous system
Test: Central sympathetic-inhibitory activity (cats in urethane narcosis)
Assay type: in vivo
Settings: anaesthetized cat, i.v.; positive if sympathetic activity inhibited >30% for >30 minutes in blood pressure-lowering dosages
Source text: The central sympathetic-inhibitory activity can be determined according to the following method:
(§2) The action of the test compounds on the activity in the sympathetic nervous system is investigated on cats in urethane narcosis. The preganglionic sympathetic activity is derived by means of biopolar platinum electrodes from the splanchnic nerve and the postganglionic sympathetic activity is derived from a nerve branch to the kidney according to the method of G. Hausler [Naunyn-Schmiedeberg's Arch. Pharmacol. 286, 97-111 (1974)]. Moreover, there is measured the arterial blood pressure from the femoral artery as well as the heart rate. The test substance is injected intravenously. When a test substance in blood pressure-lowering dosages inhibits the sympathetic activity during more than 30 minutes by more than 30%, then it is qualified as having "central sympathetic-inhibitory activity".

Row | Compound | Central sympathetic-inhibitory activity
23 | [O-][n+]1ccccc1CON1CCNC1=Nc1cccc(Cl)c1Cl [B, 2-([{2-[(2,3-Dichlorophenyl)imino]-1-imidazolidinyl}oxy]methyl)pyridine 1-oxide] | none
24 | CN(C1=NCCN1OCc1cccc[n+]1[O-])c1c(Cl)cccc1Cl [C, 2-[{[2-(2,6-Dichloro-N-methylanilino)-2-imidazolin-1-yl]oxy}methyl]pyridine 1-oxide] | none
25 | [O-][n+]1ccccc1CON1CCNC1=Nc1c(Cl)cccc1Cl [Compound A, 2-([{2-[(2,6-Dichlorophenyl)imino]-1-imidazolidinyl}oxy]methyl)pyridine 1-oxide] | none
26 | Cc1cc[n+]([O-])c(CON2CCNC2=Nc2c(Cl)cccc2Cl)c1 [D, 2-([{2-[(2,6-Dichlorophenyl)imino]-1-imidazolidinyl}oxy]methyl)-4-methylpyridin 1-oxide] | none

System: Anaesthetized cat
Test: Blood pressure and heart rate in the anaesthetized cat (i.v.)
Assay type: in vivo
Settings: 1.0 mg/kg (i.v.), (3'), maximum variation from control
Experimental: as §2, §1

Row | Compound | Blood pressure, Δ% [%]
27 | Cc1cc[n+]([O-])c(CON2CCNC2=Nc2c(Cl)cccc2Cl)c1 [D, 2-([{2-[(2,6-Dichlorophenyl)imino]-1-imidazolidinyl}oxy]methyl)-4-methylpyridin 1-oxide] | -22

Same assay, conditions: 1.0 mg/kg (i.v.), (5'), maximum variation from control

Row | Compound | Blood pressure, Δ% [%]
28 | CN(C1=NCCN1OCc1cccc[n+]1[O-])c1c(Cl)cccc1Cl [C, 2-[{[2-(2,6-Dichloro-N-methylanilino)-2-imidazolin-1-yl]oxy}methyl]pyridine 1-oxide] | -14

Same assay, conditions: 1.0 mg/kg (i.v.), maximum variation from control

Row | Compound | Blood pressure, Δ% [%] | Heart rate, Δ% [%]
29 | [O-][n+]1ccccc1CON1CCNC1=Nc1cccc(Cl)c1Cl [B, 2-([{2-[(2,3-Dichlorophenyl)imino]-1-imidazolidinyl}oxy]methyl)pyridine 1-oxide] | -5 | 0
30 | CN(C1=NCCN1OCc1cccc[n+]1[O-])c1c(Cl)cccc1Cl [C, 2-[{[2-(2,6-Dichloro-N-methylanilino)-2-imidazolin-1-yl]oxy}methyl]pyridine 1-oxide] |  | -6
31 | [O-][n+]1ccccc1CON1CCNC1=Nc1c(Cl)cccc1Cl [Compound A, 2-([{2-[(2,6-Dichlorophenyl)imino]-1-imidazolidinyl}oxy]methyl)pyridine 1-oxide] | -5 | -5

Same assay, conditions: 3.0 mg/kg (i.v.), (10'), maximum variation from control

Row | Compound | Blood pressure, Δ% [%] | Heart rate, Δ% [%]
32 | CN(C1=NCCN1OCc1cccc[n+]1[O-])c1c(Cl)cccc1Cl [C, 2-[{[2-(2,6-Dichloro-N-methylanilino)-2-imidazolin-1-yl]oxy}methyl]pyridine 1-oxide] | -21 | -22

Same assay, conditions: 3.0 mg/kg (i.v.), maximum variation from control

Row | Compound | Blood pressure, Δ% [%] | Heart rate, Δ% [%]
33 | [O-][n+]1ccccc1CON1CCNC1=Nc1cccc(Cl)c1Cl [B, 2-([{2-[(2,3-Dichlorophenyl)imino]-1-imidazolidinyl}oxy]methyl)pyridine 1-oxide] | -25 | -6
34 | [O-][n+]1ccccc1CON1CCNC1=Nc1c(Cl)cccc1Cl [Compound A, 2-([{2-[(2,6-Dichlorophenyl)imino]-1-imidazolidinyl}oxy]methyl)pyridine 1-oxide] | -10 | -5
35 | Cc1cc[n+]([O-])c(CON2CCNC2=Nc2c(Cl)cccc2Cl)c1 [D, 2-([{2-[(2,6-Dichlorophenyl)imino]-1-imidazolidinyl}oxy]methyl)-4-methylpyridin 1-oxide] | -22 | -27

Same assay, conditions: 10.0 mg/kg (i.v.), (10'), maximum variation from control

Row | Compound | Blood pressure, Δ% [%] | Heart rate, Δ% [%]
36 | CN(C1=NCCN1OCc1cccc[n+]1[O-])c1c(Cl)cccc1Cl [C, 2-[{[2-(2,6-Dichloro-N-methylanilino)-2-imidazolin-1-yl]oxy}methyl]pyridine 1-oxide] | -21 | -22

Same assay, conditions: 10.0 mg/kg (i.v.), (15'), maximum variation from control

Row | Compound | Blood pressure, Δ% [%]
37 | [O-][n+]1ccccc1CON1CCNC1=Nc1cccc(Cl)c1Cl [B, 2-([{2-[(2,3-Dichlorophenyl)imino]-1-imidazolidinyl}oxy]methyl)pyridine 1-oxide] | -50

Same assay, conditions: 10.0 mg/kg (i.v.), maximum variation from control

Row | Compound | Heart rate, Δ% [%] | Blood pressure, Δ% [%]
38 | [O-][n+]1ccccc1CON1CCNC1=Nc1cccc(Cl)c1Cl [B, 2-([{2-[(2,3-Dichlorophenyl)imino]-1-imidazolidinyl}oxy]methyl)pyridine 1-oxide] | -6 | 
39 | [O-][n+]1ccccc1CON1CCNC1=Nc1c(Cl)cccc1Cl [Compound A, 2-([{2-[(2,6-Dichlorophenyl)imino]-1-imidazolidinyl}oxy]methyl)pyridine 1-oxide] | -29 | -10
